Type in all cases: functional, cell-based
A short description of experiment [1]: Cytotoxicity against human HL60 cells assessed as reduction in cell number. To be noted: HL-60.
Experiment [2] has as its system SMMC-7721. The experiment is described as follows: Cytotoxicity against human SMMC7721 cells assessed as reduction in cell number.
Experiment [3] relates to A549. The experiment is described as follows: Cytotoxicity against human A549 cells assessed as reduction in cell number.
Experiment [4] concerns MCF7. Kind of experiment: Cytotoxicity against human MCF7 cells assessed as reduction in cell number.
For experiment [5], the system named is SW480. Kind of experiment: Cytotoxicity against human SW480 cells assessed as reduction in cell number.
In a further experiment the test system is HL-60. Kind of experiment: Cytotoxicity against human HL60 cells assessed as reduction in cell number at 40 uM.
Experiment [6] deals with SMMC-7721. The experiment is described as follows: Cytotoxicity against human SMMC7721 cells assessed as reduction in cell number at 40 uM.
Experiment [7] has as its system A549. Kind of experiment: Cytotoxicity against human A549 cells assessed as reduction in cell number at 40 uM.
The test system of experiment [8] is MCF7. Kind of experiment: Cytotoxicity against human MCF7 cells assessed as reduction in cell number at 40 uM.
Experiment [9] has as its system SW480. The experiment is described as follows: Cytotoxicity against human SW480 cells assessed as reduction in cell number at 40 uM.

The source made the active and inactive calls. The rule behind the calls is not given here.

As to `COc1ccc(CCc2cc(OC)c(O)c(OC)c2)cc1O`, the IC50 was 2.95 µM in experiment [1]; 10.1 µM in the experiment on SMMC-7721 [2]; 6.6 µM in the experiment with A549 [3]; 12.3 µM in the experiment on MCF7 [4]; 5.17 µM with SW480 [5].

Take `COc1cc(CCc2cc(OC)c(O)c(OC)c2)ccc1O` [MOSCATILIN]: the IC50 in [1] came to 2.18 µM; with SMMC-7721 [2] it was 4.07 µM; in the experiment on A549 [3], 5.73 µM; in the experiment on MCF7 [4], 6.2 µM; in the experiment on SW480 [5] it was 6.88 µM.

For `COc1cc(CC(OC)c2cc(OC)c(O)c(OC)c2)ccc1O` (stereo not given), the result in the experiment on HL-60, in the experiment on SMMC-7721 [6], with A549 [7], with MCF7 [8] and in the experiment with SW480 [9] was inactive.

For `COc1cc(CCc2cc(O)c(OC)c(OC)c2)ccc1O`, the IC50 was 24.3 µM in experiment [1]; more than 40 µM in the experiment with SMMC-7721 [2]; more than 40 µM in the experiment with A549 [3]; 37.1 µM in the experiment with MCF7 [4]; more than 40 µM in the experiment with SW480 [5].

On to `COc1cc(O)cc(CCc2ccc(O)c(OC)c2)c1`, for which the result with HL-60, in the experiment with SMMC-7721 [6], with A549 [7], in the experiment with MCF7 [8] and in the experiment on SW480 [9] was inactive.

For `Oc1cc(O)c2c(c1)C[C@H](O)c1cccc(O)c1-2`, the outcome with HL-60, in the experiment on SMMC-7721 [6], in the experiment on A549 [7], with MCF7 [8] and with SW480 [9] was inactive.

For the compound `COc1cc(CCc2cc(O)c(Cc3c(CCc4ccc(O)c(OC)c4)cc(O)cc3OC)c(OC)c2)ccc1O`, the 50% inhibitory concentration (IC50) in experiment [1] is 15.8 µM; with SMMC-7721 [2], 16.6 µM; in the experiment on A549 [3] it was 15.6 µM; in the experiment with MCF7 [4], 12.1 µM; in the experiment with SW480 [5] it was 18.2 µM.

Regarding `COc1cc(CCc2cc(O)c(Cc3c(CCc4cccc(O)c4)cc(O)cc3OC)c(OC)c2)ccc1O`, the IC50 was 22.3 µM in experiment [1]; more than 40 µM with SMMC-7721 [2]; more than 40 µM in the experiment on A549 [3]; 24.8 µM with MCF7 [4]; more than 40 µM in the experiment with SW480 [5].

Regarding `COc1cc(CCc2cc(O)cc(O)c2)ccc1O`, the outcome with HL-60, in the experiment on SMMC-7721 [6], in the experiment with A549 [7], in the experiment on MCF7 [8] and in the experiment with SW480 [9] was inactive.

Regarding `COc1cc(O)cc(CCc2cccc(O)c2)c1`, the result in the experiment on HL-60, with SMMC-7721 [6], in the experiment on A549 [7], in the experiment on MCF7 [8] and in the experiment with SW480 [9] was inactive.

`COc1cc(O)c(Cc2c(O)cc(CCc3ccc(O)c(OC)c3)cc2OC)c(CCc2ccc(O)c(OC)c2)c1`: the 50% inhibitory concentration (IC50) in experiment [1] was found to be 16.1 µM; in the experiment with SMMC-7721 [2], 18.3 µM; with A549 [3], 16.3 µM; in the experiment with MCF7 [4], 12.7 µM; in the experiment with SW480 [5] it was 17.2 µM.

As to `COc1cc(O)c(Cc2c(CCc3ccc(O)c(OC)c3)cc(O)cc2OC)c(CCc2ccc(O)c(OC)c2)c1`, the IC50 in experiment [1] was determined as 16.8 µM; in the experiment with SMMC-7721 [2], 18.9 µM; in the experiment with A549 [3], 16.5 µM; in the experiment on MCF7 [4], 7.75 µM; in the experiment with SW480 [5], 21.2 µM.

For the compound `COc1cc(O)c(Cc2c(O)cc(OC)cc2CCc2ccc(O)c(OC)c2)c(CCc2ccc(O)c(OC)c2)c1`, the IC50 in experiment [1] stood at 19.1 µM; in the experiment with SMMC-7721 [2], 17.5 µM; in the experiment on A549 [3] it was 16.6 µM; in the experiment on MCF7 [4] it was 13.7 µM; with SW480 [5], 18.8 µM.

As to `COc1cc(CCc2cc(O)cc(O)c2Cc2c(O)cc(O)cc2CCc2ccc(O)c(OC)c2)ccc1O`, the result in the experiment on HL-60, in the experiment on SMMC-7721 [6], in the experiment on A549 [7], in the experiment on MCF7 [8] and with SW480 [9] was inactive.

For `COc1cc(CCc2cc(O)cc(OC)c2Cc2c(CCc3ccc(O)c(OC)c3)cc(O)cc2OC)ccc1O`, the IC50 in experiment [1] was 13.9 µM; in the experiment on SMMC-7721 [2], 16.9 µM; in the experiment on A549 [3], 14.5 µM; in the experiment on MCF7 [4], 5.85 µM; in the experiment with SW480 [5], 18.8 µM.

These data come from ChEMBL document CHEMBL3352806, “Cytotoxic bibenzyl dimers from the stems of Dendrobium fimbriatum Hook” (Bioorg Med Chem Lett, 2014).
